Source: ChEMBL document CHEMBL1201862, “PubChem BioAssay data set” (2004)
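How tested: cells in 96-well plates exposed to compound for 48 hours at five concentrations. Here, GI50 denotes the concentration required for 50% inhibition of growth.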 The source made the active and inactive calls. No stated cut-off is given here; in the data, active = GI50 up to about 1.1 µM and inactive = higher.

Tests used:
Assay in all cases: NCI tumour cell line growth inhibition, 48 h
NCI/ADR-RES = tested on: NCI/ADR-RES
PC-3 = tested on: PC-3
MDA-N = tested on: MDA-N
DU-145 = tested on: DU-145
MDA-MB-231 = tested on: MDA-MB-231
Hs-578T = tested on: Hs-578T
SR = tested on: SR
Malme-3M = tested on: Malme-3M
COLO 205 = tested on: COLO 205
HOP-92 = tested on: HOP-92
OVCAR-4 = tested on: OVCAR-4
OVCAR-8 = tested on: OVCAR-8
NCI-H23 = tested on: NCI-H23
KM12 = tested on: KM12
CCRF-CEM = tested on: CCRF-CEM
MDA-MB-435 = tested on: MDA-MB-435
LXFL 529 = tested on: LXFL 529
KM-20L2 = tested on: KM-20L2
M19-MEL = tested on: M19-MEL

| SMILES | GI50 (NCI/ADR-RES) | GI50 (PC-3) | GI50 (MDA-N) | GI50 (DU-145) | GI50 (MDA-MB-231) | GI50 (Hs-578T) | GI50 (SR) | GI50 (Malme-3M) | GI50 (COLO 205) | GI50 (HOP-92) | GI50 (OVCAR-4) | GI50 (OVCAR-8) | GI50 (NCI-H23) | GI50 (KM12) | GI50 (CCRF-CEM) | GI50 (MDA-MB-435) | GI50 (LXFL 529) | GI50 (KM-20L2) | GI50 (M19-MEL) |
| --- | --- | --- | --- | --- | --- | --- | --- | --- | --- | --- | --- | --- | --- | --- | --- | --- | --- | --- | --- |
| COc1cccc(C2c3cc4c(cc3OC(N3CCOCC3)C2C)OCO4)c1 (stereo unspecified) | 13.7 µM (inactive) | 5.53 µM (inactive) | 3.07 µM (inactive) | 31.8 µM (inactive) | 35.1 µM (inactive) | 13.9 µM (inactive) | 9.1 µM (inactive) | 10.5 µM (inactive) | 11.3 µM (inactive) | 25.5 µM (inactive) | 14.7 µM (inactive) | 23.4 µM (inactive) |  |  |  |  |  |  |  |
| COc1ccc(-c2cs/c(=N\c3ccccc3)n2CCCN(C)C)cc1 | 15.2 µM (inactive) | 12.6 µM (inactive) | 30.6 µM (inactive) |  | 44.2 µM (inactive) |  | 22.8 µM (inactive) |  |  | 26.3 µM (inactive) | 23.3 µM (inactive) | 21.8 µM (inactive) | 23.1 µM (inactive) | 15 µM (inactive) | 21.1 µM (inactive) | 18.4 µM (inactive) |  |  |  |
| CSc1sc(C)cc1-c1nsc(=O)o1 | > 100 µM (inactive) | > 100 µM (inactive) | > 100 µM (inactive) | > 100 µM (inactive) |  | > 100 µM (inactive) | > 100 µM (inactive) | > 100 µM (inactive) | > 100 µM (inactive) | > 100 µM (inactive) | > 100 µM (inactive) |  | > 100 µM (inactive) | > 100 µM (inactive) | > 100 µM (inactive) | > 100 µM (inactive) |  |  |  |
| C=CCCON(C(=O)OC(C)(C)C)c1ccccc1 | 67 µM (inactive) | 4.12 µM (inactive) | > 100 µM (inactive) | > 100 µM (inactive) | > 100 µM (inactive) | > 100 µM (inactive) |  | 20 µM (inactive) | > 100 µM (inactive) | > 100 µM (inactive) |  | > 100 µM (inactive) | > 100 µM (inactive) | > 100 µM (inactive) | 12.2 µM (inactive) | > 100 µM (inactive) |  |  |  |
| O=C1C(Cl)C2(CC(/C=C/c3cccs3)=NN2c2cccc(S(=O)(=O)O)c2)N1c1nc2ccccc2s1 (stereo unspecified) | > 100 µM (inactive) | > 100 µM (inactive) | > 100 µM (inactive) | 21.6 µM (inactive) | > 100 µM (inactive) | > 100 µM (inactive) | 29.9 µM (inactive) | > 100 µM (inactive) | > 100 µM (inactive) | 1.79 µM (inactive) | 71.3 µM (inactive) | 41.7 µM (inactive) | 27.8 µM (inactive) | > 100 µM (inactive) | 20.1 µM (inactive) | 45.8 µM (inactive) |  |  |  |
| C#CCN(Cc1ccc2nc(-c3ccccc3)c(Cl)nc2c1)c1ccc(F)cc1 | > 100 µM (inactive) | > 100 µM (inactive) | > 100 µM (inactive) | 95.7 µM (inactive) | > 100 µM (inactive) | > 100 µM (inactive) | 45.8 µM (inactive) | > 100 µM (inactive) | 51.3 µM (inactive) | 47 µM (inactive) | 59.8 µM (inactive) | > 100 µM (inactive) | 71.6 µM (inactive) | > 100 µM (inactive) | 17.5 µM (inactive) | > 100 µM (inactive) |  |  |  |
| COc1nc(N=P(c2ccccc2)(c2ccccc2)c2ccccc2)cc(=O)n1C | > 100 µM (inactive) | > 100 µM (inactive) | > 100 µM (inactive) | > 100 µM (inactive) | > 100 µM (inactive) | > 100 µM (inactive) | 0.0233 µM (active) |  | > 100 µM (inactive) | > 100 µM (inactive) | > 100 µM (inactive) | > 100 µM (inactive) | > 100 µM (inactive) | > 100 µM (inactive) | > 100 µM (inactive) | > 100 µM (inactive) |  |  |  |
| CCOC(=O)c1sc2nc(SC)nc(N3CCCCC3)c2c1N | > 100 µM (inactive) | > 100 µM (inactive) | > 100 µM (inactive) | > 100 µM (inactive) | > 100 µM (inactive) | > 100 µM (inactive) | > 100 µM (inactive) | > 100 µM (inactive) | > 100 µM (inactive) | > 100 µM (inactive) | > 100 µM (inactive) | > 100 µM (inactive) | > 100 µM (inactive) | > 100 µM (inactive) |  | > 100 µM (inactive) |  |  |  |
| CCOC(=O)C1(C#N)C(c2ccccc2)CC(O)(c2ccc(OC)cc2)C(C(=O)c2ccc(OC)cc2)C1c1ccccc1 (stereo unspecified) |  |  |  |  |  |  | > 100 µM (inactive) | > 100 µM (inactive) | > 100 µM (inactive) |  | > 100 µM (inactive) | > 100 µM (inactive) | > 100 µM (inactive) | > 100 µM (inactive) | > 100 µM (inactive) |  | > 100 µM (inactive) | > 100 µM (inactive) | > 100 µM (inactive) |
| Brc1cc(CCOC2CCCCO2)c(-c2sccc2CCOC2CCCCO2)s1 (stereo unspecified) | 40.7 µM (inactive) | 42.2 µM (inactive) | 40.3 µM (inactive) | > 100 µM (inactive) | > 100 µM (inactive) | 13.9 µM (inactive) | 9.75 µM (inactive) | 24.9 µM (inactive) | 43.4 µM (inactive) | > 65.2 µM (inactive) | 48 µM (inactive) | 45.5 µM (inactive) | 34.7 µM (inactive) | 27 µM (inactive) | 19.9 µM (inactive) | 37.7 µM (inactive) |  |  |  |
